Experimental data published in patent US10961215B2, “N-aryl and N-heteroaryl piperidine derivatives as liver X receptor beta agonists, compositions, and their use” (Merck Sharp & Dohme Corp., priority 2016, dated 2021).

Columns and labels:
[1] = molecular target: T1, GST tagged LXRalpha LBD (ligand binding domain) (Homo sapiens, UniProt Q13133); assay: LanthaScreen TR-FRET Liver X Receptor Coactivator Assay, LXR alpha-LBD (co-activator recruitment; IP and % Emax relative to T0901317); type: biochemical; conditions: for LXR alpha IP (nM) / EC50: Inflection Point of co-activator recruitment, LXR alpha-LBD, TR-FRET; for Emax: efficacy at max dose in relation to reference T0901317, LXR alpha-LBD, read-out: LXR alpha actiivty at max dose (%)
T1 construct: purchased Invitrogen pv4655
T1 sequence (Q13133 209-447 limits assumed): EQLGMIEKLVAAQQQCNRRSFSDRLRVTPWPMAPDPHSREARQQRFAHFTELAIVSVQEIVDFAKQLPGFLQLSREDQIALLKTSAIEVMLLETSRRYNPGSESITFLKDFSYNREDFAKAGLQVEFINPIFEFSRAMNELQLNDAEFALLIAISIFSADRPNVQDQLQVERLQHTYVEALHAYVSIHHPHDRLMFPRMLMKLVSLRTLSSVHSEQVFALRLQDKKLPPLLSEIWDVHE
Procedure: (§1) Potency (Inflection Point, IP) and efficacy (Emax) are evaluated via compound-induced co-activator recruitment to glutathione-S-transferase (GST) tagged LXRbeta and LXRalpha LBD (ligand binding domain) proteins in relation to reference dual agonist compound T0901317 (N-(2,2,2-Trifluoroethyl)-N-[4-[2,2,2-trifluoro-1-hydroxy-1-(trifluoromethyl)ethyl]phenyl]benzenesulfonamide) using the LanthaScreen™ TR-FRET Liver X Receptor Coactivator Assays according to manufacturer's instructions (Invitrogen catalog number pv4658.pps and pv4655). While running the LanthaScreen™ TR-FRET Liver X Receptor Coactivator Assay, LXR alpha-LBD or LXR beta-LBD was added to ligand test compounds followed by addition of a mixture of a fluorescein-labelled coactivator peptide and terbium-conjugated anti-GST antibody. After an incubation period at room temperature, TR-FRET (time-resolved fluorescence resonance energy transfer) was measured using a filter-based instrument capable of TR-FRET, e.g. PerkinElmer Envision.

[2] = molecular target: T2, GST tagged LXRbeta LBD (ligand binding domain) (Homo sapiens, UniProt P55055); assay: LanthaScreen TR-FRET Liver X Receptor Coactivator Assay, LXR beta-LBD (co-activator recruitment; IP and % Emax relative to T0901317); type: biochemical; conditions: for EC50: Inflection Point of co-activator recruitment, LXR beta-LBD, TR-FRET; for Emax: efficacy at max dose in relation to reference T0901317, LXR beta-LBD, read-out: LXR beta actiivty at max dose (%)
T2 construct: purchased Invitrogen pv4658.pps
T2 sequence (P55055 222-460 limits assumed): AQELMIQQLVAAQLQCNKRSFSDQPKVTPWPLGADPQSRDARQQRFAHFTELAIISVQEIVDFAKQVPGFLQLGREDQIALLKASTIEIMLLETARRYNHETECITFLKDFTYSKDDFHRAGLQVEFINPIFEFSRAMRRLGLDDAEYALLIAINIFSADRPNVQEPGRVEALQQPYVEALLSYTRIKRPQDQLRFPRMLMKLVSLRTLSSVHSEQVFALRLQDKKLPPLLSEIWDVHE
Procedure: as §1

Structure (SMILES) | LXR alpha IP (nM) [1] | Emax [1] [%] | EC50 [2] [nM] | Emax [2] [%] | EC50 [1] [nM] | activity (stated in words in the synthesis text) ([2]; cis/trans isomers of Example 11-1 separated by Prep-HPLC (RT=1.95 min, 1.98 min), assay not given)
COc1cccc([C@@](O)(C(=O)Nc2ccc(C3CCN(c4ccc(C(=O)N(C)C)c(Cl)n4)CC3)cc2)C(F)(F)F)c1 [Example 10-1, (R)-2-chloro-N,N-dimethyl-6-(4-(4-(3,3,3-trifluoro-2-hydroxy-2-(3-methoxyphenyl)propanamido)phenyl)piperidin-1-yl)nicotinamide] | No IP | 0 | 1350 | 65 | – | –
CN(C)C(=O)c1ccc(N2CCC3(CC2)CC3CCCNC(=O)C(C)(C)c2ccccc2)cc1Cl (stereo not drawn) [Example 7-36, 2-chloro-N,N-dimethyl-4-(1-(3-(2-methyl-2-phenylpropanamido)propyl)-6-azaspiro[2.5]octan-6-yl)benzamide] | No IP | 0 | 525 | 57 | – | –
CN(C)C(=O)c1ccc(N2CCC(C[C@H]3C[C@H]3CN(C)C(=O)[C@](O)(c3ccccc3)C(F)(F)F)CC2)nc1Cl [Example 18-1, 2-chloro-N,N-dimethyl-6-(4-(((1S,2R)-2-(((R)-3,3,3-trifluoro-2-hydroxy-N-methyl-2-phenylpropanamido)methyl)cyclopropyl)methyl)piperidin-1-yl)nicotinamide] | No IP | 12 | 131 | 56 | – | –
COc1cccc([C@@](O)(C(=O)N(C)CCCC2CCN(c3ccc(C(=O)N(C)Cc4noc(C5CC5)n4)c(Cl)n3)CC2)C(F)(F)F)c1 [Example 2-12, (R)-2-chloro-N-((5-cyclopropyl-1,2,4-oxadiazol-3-yl)methyl)-N-methyl-6-(4-(3-(3,3,3-trifluoro-2-hydroxy-2-(3-methoxyphenyl)-N-methylpropanamido)propyl)piperidin-1-yl)nicotinamide] | – | 40 | 11 | 62 | 95 | –
COc1cccc([C@@](O)(C(=O)N(C)[C@H]2C[C@@H](C3CCN(c4ccc(C(=O)N(C)C)c(Cl)n4)CC3)C2)C(F)(F)F)c1 [Example 17-4, cis-2-chloro-N,N-dimethyl-6-(4-(-3-((R)-3,3,3-trifluoro-2-hydroxy-2-(3-methoxyphenyl)-N-methylpropanamido)cyclobutyl)piperidin-1-yl)nicotinamide] | No IP | 13 | 53 | 39 | – | –
COc1cccc([C@@](O)(C(=O)N(C)CCCC2CCN(c3ccc(C(=O)N4CC[C@@H](CO)C4)c(Cl)n3)CC2)C(F)(F)F)c1 [Example 2-7, (R)-N-(3-(1-(6-chloro-5-((R)-3-(hydroxymethyl)pyrrolidine-1-carbonyl)pyridin-2-yl)piperidin-4-yl)propyl)-3,3,3-trifluoro-2-hydroxy-2-(3-methoxyphenyl)-N-methylpropanamide] | No IP | 4 | 420 | 43 | – | –
CN(C)C(=O)c1ccc(N2CCC(CCCNC(=O)C(O)(c3ccccc3)C(F)(F)C(F)(F)F)CC2)cc1Cl (stereo not drawn) [Example 5-3, 2-chloro-N,N-dimethyl-4-(4-(3-(3,3,4,4,4-pentafluoro-2-hydroxy-2-phenyl-butanamido)propyl)piperidin-1-yl)benzamide] | – | 27 | 380 | 118 | 1670 | –
COc1cccc([C@@](O)(C(=O)NCC[C@H]2CC23CCN(c2ccc(C(=O)N(C)C)c(Cl)c2)CC3)C(F)(F)F)c1 [Example 7-32, 2-chloro-N,N-dimethyl-4-((R)-1-(2-((R)-3,3,3-trifluoro-2-hydroxy-2-(3-methoxyphenyl)propanamido)ethyl)-6-azaspiro[2.5]octan-6-yl)benzamide] | No IP | 17 | 284 | 69 | – | –
CN(C)C(=O)c1ccc(N2CCC(CCCN(C)C(=O)[C@](O)(c3cc(F)cc(Cl)c3)C(F)(F)F)CC2)nc1Cl [Example 1-12, (R)-2-chloro-6-(4-(3-(2-(3-chloro-5-fluorophenyl)-3,3,3-trifluoro-2-hydroxy-N-methylpropanamido)propyl)piperidin-1-yl)-N,N-dimethylnicotinamide] | – | 23 | 13 | 78 | 372 | –
CN(C)C(=O)c1ccc(N2CCC3(CC2)C[C@@H]3CCN(C)C(=O)[C@](O)(c2cccc(OC3CC3)c2)C(F)(F)F)cc1Cl [Example 7-3, 2-chloro-4-((R)-1-(2-((R)-2-(3-cyclopropoxyphenyl)-3,3,3-trifluoro-2-hydroxy-N-methylpropanamido)ethyl)-6-azaspiro[2.5]octan-6-yl)-N,N-dimethylbenzamide] | – | 24 | 32 | 61 | 601 | –
CN(C)C(=O)c1ccc(N2CCC([C@H]3C[C@H]3CN(C)C(=O)[C@](O)(c3ccccc3)C(F)(F)F)CC2)nc1Cl [Example 15-2, 2-chloro-N,N-dimethyl-6-(4-((1R,2R)-2-(((R)-3,3,3-trifluroo-2-hydroxy-N-methyl-2-phenylpropanamido)methyl)cyclopropyl)piperidin-1-yl)nicotinamide] | – | 25 | 10 | 64 | 289 | –
CCOc1cccc([C@@](O)(C(=O)N(C)CCCC2CCN(c3ccc(C(=O)N(C)C)c(Cl)n3)CC2)C(F)(F)F)c1 [Example 1-36, (R)-2-chloro-6-(4-(3-(2-(3-ethoxyphenyl)-3,3,3-trifluoro-2-hydroxy-N-methylpropanamido)propyl)piperidin-1-yl)-N,N-dimethylnicotinamide] | No IP | 0 | 78 | 63 | – | –
COc1cccc([C@@](O)(C(=O)N(C)CC[C@@H]2CC23CCN(c2ccc(C(=O)NC4CC4)c(Cl)c2)CC3)C(F)(F)F)c1 [Example 7-27, 2-chloro-N-cyclopropyl-4-((S)-1-(2-((R)-3,3,3-trifluoro-2-hydroxy-2-(3-methoxyphenyl)-N-methylpropanamido)ethyl)-6-azaspiro[2.5]octan-6-yl)benzamide] | No IP | 5 | 1870 | 32 | – | –
COc1cccc([C@@](O)(C(=O)N(C)CCCC2CCN(c3ccc(C(=O)N(C)C)c(C)n3)CC2)C(F)(F)F)c1 [Example 2-20, (R)-N,N,2-trimethyl-6-(4-(3-(3,3,3-trifluoro-2-hydroxy-2-(3-methoxyphenyl)-N-methylpropanamido)propyl)piperidin-1-yl)nicotinamide] | No IP | 0 | 271 | 64 | – | –
CN(C)C(=O)c1ccc(N2CCC(C[C@@H]3C[C@H]3CN(C)C(=O)[C@](O)(c3ccccc3)C(F)(F)F)CC2)nc1Cl [Example 18-4, 2-chloro-N,N-dimethyl-6-(4-(((1R,2R)-2-(((R)-3,3,3-trifluoro-2-hydroxy-N-methyl-2-phenylpropanamido)methyl)cyclopropyl)methyl)piperidin-1-yl)nicotinamide] | No IP | 15 | 66 | 57 | – | –
COc1cccc([C@@](O)(C(=O)N(C)[C@H]2C[C@H](C3CCN(c4ccc(C(=O)N(C)C)c(Cl)n4)CC3)C2)C(F)(F)F)c1 [Example 17-3, Trans-2-chloro-N,N-dimethyl-6-(4-(-3-((R)-3,3,3-trifluoro-2-hydroxy-2-(3-methoxyphenyl)-N-methylpropanamido)cyclobutyl)piperidin-1-yl)nicotinamide] | No IP | 12 | 27 | 65 | – | –
CN(C)C(=O)c1ccc(N2CCC([C@H]3C[C@H]3CN(C)C(=O)[C@](O)(c3cccc(C(F)(F)F)c3)C(F)(F)F)CC2)nc1Cl [Example 15-7, 2-chloro-N,N-dimethyl-6-(4-((1R,2R)-2-(((R)-3,3,3-trifluoro-2-hydroxy-N-methyl-2-(3-(trifluoromethyl)phenyl)rpropanamido)methyl)cyclopropyl)piperidin-1-yl)nicotinamide] | No IP | 11 | 26 | 53 | – | –
COc1cccc([C@@](O)(C(=O)N(C)C2CC(CC3CCN(c4ccc(C(=O)N(C)C)c(C)n4)CC3)C2)C(F)(F)F)c1 (single isomer, unassigned) [first eluting peak] | – | – | – | – | – | not active
